The values below come from US20260327221A1, “INHIBITORS OF CYCLIC GMP-AMP SYNTHASE AND USES THEREOF” (Ventus Therapeutics U.S., Inc., priority 2023, published 2026).

hcGAS, sequence (Q8N884 whole entry): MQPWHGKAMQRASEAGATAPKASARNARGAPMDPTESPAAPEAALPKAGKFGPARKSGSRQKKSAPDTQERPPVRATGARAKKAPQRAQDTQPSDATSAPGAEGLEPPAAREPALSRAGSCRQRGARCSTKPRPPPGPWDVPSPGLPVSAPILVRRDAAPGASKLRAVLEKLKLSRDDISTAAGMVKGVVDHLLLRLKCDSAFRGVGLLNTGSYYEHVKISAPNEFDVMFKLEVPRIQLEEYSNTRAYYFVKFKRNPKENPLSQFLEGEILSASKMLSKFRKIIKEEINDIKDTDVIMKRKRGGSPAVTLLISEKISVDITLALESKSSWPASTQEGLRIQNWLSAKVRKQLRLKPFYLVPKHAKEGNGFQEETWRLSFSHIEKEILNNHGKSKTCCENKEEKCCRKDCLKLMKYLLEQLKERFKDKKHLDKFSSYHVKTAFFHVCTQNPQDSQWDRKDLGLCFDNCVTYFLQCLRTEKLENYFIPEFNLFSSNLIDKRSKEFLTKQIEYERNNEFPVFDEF

The test deals with hcGAS (Homo sapiens, UniProt Q8N884). As to the kind of experiment: hcGAS LCMS assay (direct measurement of cGAMP production by LC/MS). As to conditions: 4 h incubation with enzyme and substrates; cGAMP production by LC/MS; class symbols; read-out: hcGAS LCMS IC50. It is filed as biochemical. The procedure:
cGAS catalyzes the cyclization of ATP and GTP to produce cGAMP, which is the activating ligand of STING. Human cGAS (hcGAS) inhibition can thus be quantified by measuring how much cGAMP is formed either indirectly, by monitoring ATP-depletion as in the hcGAS Kinase-Glo assay (as described below), or directly, such as using the hcGAS LCMS assay (as described below).
2. hGAS LCMS Assay Conditions
Compounds were tested for their hcGAS inhibition activity using direct measurement of cGAMP production by LC/MS. Briefly, compounds were incubated with enzyme and substrates for 4 hours (see Table C), before the reaction was stopped with 3 volumes of 70/30 Acetonitrile/H2O mix containing 0.15 uM cGAMP-^13C10^15N5 as internal standard and mixed for 5 mmn. After centrifugation (3700 rpm, […], […]), 100 uL of each reaction was collected and mixed to equal volume of acetonitrile (MeCN). Samples were then analyzed on Qexactive (Column: XBridge BEH Amide Column, 130 Å, 3.5 μm, 3 mm×50 mm. Mobile phase A: 10 mM Ammonium acetate in 95/5 H2O/MeCN (0.5% DMSO), Mobile phase B: MeCN (0.5% DMSO).
The results of the assay, expressed as IC50 values, are reported in Table D with the following designations: A represents an IC50 value <0.005 μM (with A1 representing an IC50 value <0.0005 μM, A2 representing an IC50 value ≥0.0005 μM and <0.001 μM, and A3 representing an IC50 value ≥0.001 μM and <0.005 μM); B represents an IC50 value ≥0.005 μM and <0.02 μM; C represents an IC50 value ≥0.02 μM and <0.06 μM; and D represents an IC50 value ≥0.06 μM.
What is called IC50 is the concentration that gives 50% inhibition. With `COc1cccc(OC)c1-c1cc(C(=O)Nc2nnc(-n3nccc3N)s2)oc(=O)c1O[C@H]1CCOC1` [52A*, (S)-N-(5-(5-amino-1H-pyrazol-1-yl)-1,3,4-thiadiazol-2-yl)-4-(2,6-dimethoxyphenyl)-2-oxo-3-((tetrahydrofuran-3-yl)oxy)-2H-pyran-6-carboxamide], the IC50 is below 0.5 nM.

Take `COc1cccc(OC)c1-c1cc(C(=O)Nc2nnc(-n3nccc3N)s2)oc(=O)c1O[C@@H]1CCOC1` [52B*, (R)-N-(5-(5-amino-1H-pyrazol-1-yl)-1,3,4-thiadiazol-2-yl)-4-(2,6-dimethoxyphenyl)-2-oxo-3-((tetrahydrofuran-3-yl)oxy)-2H-pyran-6-carboxamide]: the IC50 was 0.5 to 1 nM. In the case of `COc1cccc(OC)c1-c1cc(C(=O)Nc2nnc(-n3nccc3N)s2)oc(=O)c1OC[C@@H]1CCCO1` [56A*, (S)-N-(5-(5-amino-1H-pyrazol-1-yl)-1,3,4-thiadiazol-2-yl)-4-(2,6-dimethoxyphenyl)-2-oxo-3-((tetrahydrofuran-2-yl)methoxy)-2H-pyran-6-carboxamide], the IC50 is 0.5 to 1 nM.

In the case of `COc1cccc(OC)c1-c1cc(C(=O)Nc2nnc(-n3nccc3N)s2)oc(=O)c1OC[C@H]1CCCO1` [56B*, (R)-N-(5-(5-amino-1H-pyrazol-1-yl)-1,3,4-thiadiazol-2-yl)-4-(2,6-dimethoxyphenyl)-2-oxo-3-((tetrahydrofuran-2-yl)methoxy)-2H-pyran-6-carboxamide], the concentration for half-maximal inhibition (IC50) lay in the range of 0.5 to 1 nM. Take `COCC(CN1CCSCC1)Oc1c(-c2c(OC)cccc2OC)cc(C(=O)Nc2nnc(-n3nccc3N)s2)oc1=O` (centres unmarked) [78A*/78B*]: the half-inhibitory concentration (IC50) is 5 to 20 nM. With `COc1cccc(OC)c1-c1cc(C(=O)Nc2nnc(-n3nccc3N)s2)oc(=O)c1OC[C@@H](CO)N1CCSCC1` [79A*, (R)-N-(5-(5-amino-1H-pyrazol-1-yl)-1,3,4-thiadiazol-2-yl)-4-(2,6-dimethoxyphenyl)-3-(3-hydroxy-2-thiomorpholinopropoxy)-2-oxo-2H-pyran-6-carboxamide], the IC50 lay within 1 to 5 nM. With `COc1cccc(OC)c1-c1cc(C(=O)Nc2nnc(-n3nccc3N)s2)oc(=O)c1OC[C@H](CO)N1CCSCC1` [79B*, (S)-N-(5-(5-amino-1H-pyrazol-1-yl)-1,3,4-thiadiazol-2-yl)-4-(2,6-dimethoxyphenyl)-3-(3-hydroxy-2-thiomorpholinopropoxy)-2-oxo-2H-pyran-6-carboxamide], the half-maximal inhibitory concentration (IC50) was 1 to 5 nM. As for `COc1cccc(OC)c1-c1cc(C(=O)Nc2nnc(-n3nccc3N)s2)oc(=O)c1O[C@H](CO)CN1CCSCC1` [81A*, (S)-N-(5-(5-amino-1H-pyrazol-1-yl)-1,3,4-thiadiazol-2-yl)-4-(2,6-dimethoxyphenyl)-3-((1-hydroxy-3-thiomorpholinopropan-2-yl)oxy)-2-oxo-2H-pyran-6-carboxamide], the figure is 1 to 5 nM; as for `COc1cccc(OC)c1-c1cc(C(=O)Nc2nnc(-n3nccc3N)s2)oc(=O)c1O[C@@H](CO)CN1CCSCC1` [81B*, (R)-N-(5-(5-amino-1H-pyrazol-1-yl)-1,3,4-thiadiazol-2-yl)-4-(2,6-dimethoxyphenyl)-3-((1-hydroxy-3-thiomorpholinopropan-2-yl)oxy)-2-oxo-2H-pyran-6-carboxamide], 1 to 5 nM. As for `COc1cccc(OC)c1-c1cc(C(=O)Nc2nnc(-n3nccc3N)s2)oc(=O)c1OCCN1CCO[C@H](CSC)C1` [82A*, (S)-N-(5-(5-amino-1H-pyrazol-1-yl)-1,3,4-thiadiazol-2-yl)-4-(2,6-dimethoxyphenyl)-3-(2-(2-((methylthio)methyl)morpholino)ethoxy)-2-oxo-2H-pyran-6-carboxamide], the figure is 1 to 5 nM. `COc1cccc(OC)c1-c1cc(C(=O)Nc2nnc(-n3nccc3N)s2)oc(=O)c1OCCN1CCO[C@@H](CSC)C1` [82B*, (R)-N-(5-(5-amino-1H-pyrazol-1-yl)-1,3,4-thiadiazol-2-yl)-4-(2,6-dimethoxyphenyl)-3-(2-(2-((methylthio)methyl)morpholino)ethoxy)-2-oxo-2H-pyran-6-carboxamide]: the IC50 was in the range of 0.5 to 1 nM. In the case of `COc1cccc(OC)c1-c1cc(C(=O)Nc2nnc(-n3nccc3N)s2)oc(=O)c1OCC1CSCCO1` (centres unmarked) [83A*/83B*], the IC50 lay in the range of 0.5 to 1 nM. As for `COCC(CN1CCOCC1)Oc1c(-c2c(OC)cccc2OC)cc(C(=O)Nc2nnc(-n3nccc3N)s2)oc1=O` (centres unmarked) [84A*/84B*], the figure is 5 to 20 nM; as for `COc1cccc(OC)c1-c1cc(C(=O)Nc2nnc(-n3nccc3N)s2)oc(=O)c1OCC(O)CN1CCSCC1` (centres unmarked) [91A*/91B*], 0.5 to 1 nM; as for `COC[C@@H](CO)COc1c(-c2c(OC)cccc2OC)cc(C(=O)Nc2nnc(-n3nccc3N)s2)oc1=O` [92A*, (R)-N-(5-(5-amino-1H-pyrazol-1-yl)-1,3,4-thiadiazol-2-yl)-4-(2,6-dimethoxyphenyl)-3-(3-hydroxy-2-(methoxymethyl)propoxy)-2-oxo-2H-pyran-6-carboxamide], 0.5 to 1 nM.

For `COC[C@H](CO)COc1c(-c2c(OC)cccc2OC)cc(C(=O)Nc2nnc(-n3nccc3N)s2)oc1=O` [92B*, (S)-N-(5-(5-amino-1H-pyrazol-1-yl)-1,3,4-thiadiazol-2-yl)-4-(2,6-dimethoxyphenyl)-3-(3-hydroxy-2-(methoxymethyl)propoxy)-2-oxo-2H-pyran-6-carboxamide], the IC50 is 1 to 5 nM. For the compound `COc1cccc(OC)c1-c1cc(C(=O)Nc2nnc(-n3nccc3N)s2)oc(=O)c1OCCN1C[C@@H]2C[C@H]1CS2` [93A*, 3-(2-((1S,4S)-2-thia-5-azabicyclo[2.2.1]heptan-5-yl)ethoxy)-N-(5-(5-amino-1H-pyrazol-1-yl)-1,3,4-thiadiazol-2-yl)-4-(2,6-dimethoxyphenyl)-2-oxo-2H-pyran-6-carboxamide], the IC50 is 0.5 to 1 nM. With `COc1cccc(OC)c1-c1cc(C(=O)Nc2nnc(-n3nccc3N)s2)oc(=O)c1OCCN1C[C@H]2C[C@@H]1CS2` [93B*, 3-(2-((1R,4R)-2-thia-5-azabicyclo[2.2.1]heptan-5-yl)ethoxy)-N-(5-(5-amino-1H-pyrazol-1-yl)-1,3,4-thiadiazol-2-yl)-4-(2,6-dimethoxyphenyl)-2-oxo-2H-pyran-6-carboxamide], the IC50 was 0.5 to 1 nM.

As for `COc1cccc(OC)c1-c1cc(C(=O)Nc2nnc(-n3nccc3N)s2)oc(=O)c1OCCN1CCSCC1CO` (centres unmarked) [96A*/96B*], the IC50 was in the range of 1 to 5 nM. As for `COc1cccc(OC)c1-c1cc(C(=O)Nc2nnc(-n3nccc3N)s2)oc(=O)c1OCC1(OC)CCC(O)CC1` (centres unmarked) [99A*/99B*], the IC50 lay within 1 to 5 nM. For the compound `COc1cccc(OC)c1-c1cc(C(=O)Nc2nnc(-n3nccc3N)s2)oc(=O)c1OCCN1CCSC(CO)C1` (centres unmarked) [100A*/100B*], the IC50 is 1 to 5 nM. The value for `COc1cccc(OC)c1-c1cc(C(=O)Nc2nnc(-n3nccc3N)s2)oc(=O)c1OCCOC1CC(O)C1` (centres unmarked) [102A*, N-(5-(5-amino-1H-pyrazol-1-yl)-1,3,4-thiadiazol-2-yl)-4-(2,6-dimethoxyphenyl)-3-(2-((1s,3s)-3-hydroxycyclobutoxy)ethoxy)-2-oxo-2H-pyran-6-carboxamide] was 0.5 to 1 nM; that for `COc1cccc(OC)c1-c1cc(C(=O)Nc2nnc(-n3nccc3N)s2)oc(=O)c1O[C@H](CO)C1CC1` [106A*, (S)-N-(5-(5-amino-1H-pyrazol-1yl)-1,3,4-thiadiazol-2-yl)-3-(1-cyclopropyl-2-hydroxyethoxy)-4-(2,6-dimethoxyphenyl)-2-oxo-2H-pyran-6-carboxamide] was 1 to 5 nM.
